Measurements: ChEMBL document CHEMBL5331042, “Azole inhibitors of mushroom and human tyrosinases: Current advances and prospects of drug development for melanogenic dermatological disorders” (Eur J Med Chem, 2022)
Peptide text beside a SMILES is read from it.

Target: T1, Tyrosinase (Homo sapiens, UniProt P14679)
T1 sequence (P14679 whole entry): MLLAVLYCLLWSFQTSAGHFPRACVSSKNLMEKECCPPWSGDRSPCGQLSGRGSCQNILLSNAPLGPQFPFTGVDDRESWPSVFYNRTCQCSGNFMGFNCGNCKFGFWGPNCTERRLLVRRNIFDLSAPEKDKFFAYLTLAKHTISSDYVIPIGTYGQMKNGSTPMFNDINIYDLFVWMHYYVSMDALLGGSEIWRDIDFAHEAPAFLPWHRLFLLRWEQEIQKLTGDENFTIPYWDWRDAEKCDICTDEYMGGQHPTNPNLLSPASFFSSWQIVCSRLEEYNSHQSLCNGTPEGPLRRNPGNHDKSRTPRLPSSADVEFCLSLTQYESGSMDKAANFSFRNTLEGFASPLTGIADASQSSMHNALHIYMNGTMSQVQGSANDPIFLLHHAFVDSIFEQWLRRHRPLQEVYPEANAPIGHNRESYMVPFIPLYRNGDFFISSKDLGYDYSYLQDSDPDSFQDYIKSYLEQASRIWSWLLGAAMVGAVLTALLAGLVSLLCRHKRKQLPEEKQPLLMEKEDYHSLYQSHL
Test: Inhibition of human tyrosinase using L-DOPA as substrate incubated for 10 to 20 mins by MBTH dye based assay

Row | SMILES | IC50 [µM]
1 | O=C(NC1CCCCC1)c1csc(-c2ccc(O)cc2O)n1 | 3.2
2 | CN(C(=O)C1CCCCC1)c1nc(-c2ccc(O)cc2O)cs1 | > 1000
3 | CCCNc1nc(-c2ccc(O)cc2O)cs1 | 6.2
4 | CCC(=O)Nc1nc(-c2ccc(O)cc2F)cs1 | > 700
5 | CC(C)(O)c1ccc(C(=O)Nc2nc(-c3ccc(O)cc3O)cs2)cc1 | 3.2
6 | O=C(NC1CCCCC1)c1nc(-c2ccc(O)cc2O)cs1 | 56
7 | CC(C)Nc1nc(-c2ccc(O)cc2O)cs1 | 1.1
8 | CC(C)(C)C(=O)Nc1nc(-c2ccc(O)cc2O)cs1 | 5.7
9 | CC(=O)/C=C/Nc1nc(-c2ccc(O)cc2O)cs1 | 3.5
10 | CC(=O)Nc1nc(-c2ccc(O)cc2O)cs1 | 5.6
11 | CCCC(=O)Nc1cnc(-c2cc(CCC)c(O)cc2O)s1 | > 1000
12 | CN(c1nc(-c2ccc(O)cc2O)cs1)C1CCCCC1 | 40
13 | CCCCc1ccc(O)c(C)c1O | > 200
14 | O=C(Nc1cccc(-c2ccc(O)cc2O)c1)C1CCCCC1 | > 700
15 | OCCc1ccc(O)cc1O | > 200
16 | Oc1ccc(-c2csc(Nc3ncccn3)n2)cc1 | 19
17 | Cc1sc(NC(=O)C2CCCCC2)nc1-c1ccc(O)cc1O | > 1000
18 | CC(=O)Nc1nc(-c2ccc(O)cc2O)c[nH]1 | > 700
19 | Oc1ccc(-c2csc(NC3CCCCC3)n2)c(O)c1 | 16
20 | CCCCCCc1ccc(O)c(C)c1O | 93
21 | OCc1ccc(Nc2nc(-c3ccc(O)cc3O)cs2)cc1 | 5.7

Target: T2, Mushroom tyrosinase (Agaricus bisporus, UniProt O42713+Q00024+C7FF04+C7FF05)
Test: Inhibition of mushroom tyrosinase using L-DOPA as substrate preincubated for 10 mins followed by substrate addition and measured after 20 mins

Row | SMILES | IC50 [µM]
22 | COc1ccccc1-n1c(SCC(=O)Nc2ccc(F)cc2)nnc1-c1ccccc1 | 0.08
23 | CCCCn1c(SCC(=O)Nc2ccc(I)cc2)nnc1-c1ccccc1 | 0.21
24 | CCCCn1c(SCC(=O)Nc2ccccc2)nnc1-c1ccccc1 | 0.21
25 | COc1ccccc1-n1c(SCC(=O)Nc2ccc(I)cc2)nnc1-c1ccccc1F | 0.06
26 | COc1ccccc1-n1c(SCC(=O)Nc2ccc(I)cc2)nnc1-c1ccccc1 | 0.65
27 | CCCCn1c(SCC(=O)Nc2ccc(Br)cc2)nnc1-c1ccccc1 | 0.34
28 | COc1ccccc1-n1c(SCC(=O)Nc2ccc(Br)cc2)nnc1-c1ccccc1F | 0.15
29 | CCCCn1c(SCC(=O)Nc2ccc(F)cc2)nnc1-c1ccccc1 | 0.37
30 | COc1ccccc1-n1c(SCC(=O)Nc2ccc(F)cc2)nnc1-c1ccccc1F | 0.17
31 | COc1ccccc1-n1c(SCC(=O)Nc2ccccc2)nnc1-c1ccccc1F | 0.54
32 | COc1ccccc1-n1c(SCC(=O)Nc2ccccc2)nnc1-c1ccccc1 | 0.02

Target: T2, Mushroom tyrosinase
Test: Inhibition of mushroom tyrosinase

Row | SMILES | IC50 [µM]
33 | CC(C)[C@@H]1NC(=O)[C@@H]2CCCN2C(=O)[C@H](Cc2ccc(O)cc2)NC(=O)[C@@H]2CCCN2C1=O (cyclo(PVPY)) | 0.6
34 | CC(C)[C@H]1C(=O)N2CCC[C@H]2C(=O)N[C@@H](Cc2ccc(O)cc2)C(=O)N2CCC[C@H]2c2cn1nn2 | 1.5

Target: T2, Mushroom tyrosinase
Test: Inhibition of mushroom tyrosinase incubated for 10 mins by spectrophotometric analysis

Row | SMILES | IC50 [µM]
35 | CCCCCn1nc(-c2ccccc2)n(CC(=O)NNC(=O)Nc2ccccc2Br)c1=O | > 20
36 | CCCCCn1nc(-c2ccccc2)n(CC(=O)NNC(=O)Nc2cccc(C(F)(F)F)c2)c1=O | 0.00165
37 | CCCCCn1nc(-c2ccccc2)n(CC(=O)NNC(=S)Nc2cccc(C(F)(F)F)c2)c1=O | > 20
38 | CCCCCn1nc(-c2ccccc2)n(CC(=O)NNC(=O)Nc2cccc(F)c2)c1=O | > 20
39 | CCCCCn1nc(-c2ccccc2)n(CC(=O)NNC(=O)Nc2ccccc2Cl)c1=O | > 20
40 | CCCCCn1nc(-c2ccccc2)n(CC(=O)NNC(=O)Nc2cc(C(F)(F)F)cc(C(F)(F)F)c2)c1=O | 0.00197
41 | CCCCCn1nc(-c2ccccc2)n(CC(=O)NNC(=S)Nc2cccc(Br)c2)c1=O | > 20
42 | CCCCCn1nc(-c2ccccc2)n(CC(=O)NNC(=S)Nc2ccc(Br)cc2)c1=O | 0.019
43 | CCCCCn1nc(-c2ccccc2)n(CC(=O)NNC(=S)Nc2cc(Cl)cc(Cl)c2)c1=O | 0.17
44 | CCCCCn1nc(-c2ccccc2)n(CC(=O)NNC(=S)Nc2cc(C(F)(F)F)cc(C(F)(F)F)c2)c1=O | > 20
45 | CCCCCn1nc(-c2ccccc2)n(CC(=O)NNC(=S)Nc2ccc(C(F)(F)F)cc2)c1=O | 1.49
46 | CCCCCn1nc(-c2ccccc2)n(CC(=O)NNC(=S)Nc2ccccc2Br)c1=O | > 20
47 | CCCCCn1nc(-c2ccccc2)n(CC(=O)NNC(=S)Nc2ccc(F)cc2F)c1=O | 0.019
48 | CCCCCn1nc(-c2ccccc2)n(CC(=O)NNC(=S)Nc2ccc(F)cc2)c1=O | 0.014
49 | CCCCCn1nc(-c2ccccc2)n(CC(=O)NNC(=S)Nc2ccccc2Cl)c1=O | 4.68
50 | CCCCCn1nc(-c2ccccc2)n(CC(=O)NNC(=O)Nc2ccc(F)cc2F)c1=O | > 20
51 | CCCCCn1nc(-c2ccccc2)n(CC(=O)NNC(=O)Nc2cc(Cl)cc(Cl)c2)c1=O | > 20
52 | CCCCCn1nc(-c2ccccc2)n(CC(=O)NNC(=S)Nc2ccccc2F)c1=O | > 20
53 | CCCCCn1nc(-c2ccccc2)n(CC(=O)NNC(=O)Nc2ccc(Br)cc2)c1=O | > 20
54 | CCCCCn1nc(-c2ccccc2)n(CC(=O)NNC(=S)Nc2cccc(F)c2)c1=O | 15.2
55 | CCCCCn1nc(-c2ccccc2)n(CC(=O)NNC(=O)Nc2ccccc2F)c1=O | > 20
56 | CCCCCn1nc(-c2ccccc2)n(CC(=O)NNC(=S)Nc2ccc(Cl)cc2Cl)c1=O | > 20
57 | CCCCCn1nc(-c2ccccc2)n(CC(=O)NNC(=O)Nc2ccc(Cl)cc2)c1=O | > 20
58 | CCCCCn1nc(-c2ccccc2)n(CC(=O)NNC(=O)Nc2ccc(F)cc2)c1=O | > 20
59 | CCCCCn1nc(-c2ccccc2)n(CC(=O)NNC(=S)Nc2ccc(Cl)cc2)c1=O | 0.19
60 | CCCCCn1nc(-c2ccccc2)n(CC(=O)NNC(=O)Nc2cccc(Cl)c2)c1=O | > 20
61 | CCCCCn1nc(-c2ccccc2)n(CC(=O)NNC(=O)Nc2cccc(Br)c2)c1=O | > 20
62 | CCCCCn1nc(-c2ccccc2)n(CC(=O)NNC(=O)Nc2ccc(Cl)cc2Cl)c1=O | 0.00162
63 | CCCCCn1nc(-c2ccccc2)n(CC(=O)NNC(=O)Nc2ccc(C(F)(F)F)cc2)c1=O | > 20
64 | CCCCCn1nc(-c2ccccc2)n(CC(=O)NNC(=S)Nc2cccc(Cl)c2)c1=O | 5.4

Target: T2, Mushroom tyrosinase
Test: Inhibition of mushroom tyrosinase using L-DOPA as substrate preincubated for 20 mins followed by substrate addition by absorbance based analysis

Row | SMILES | IC50 [µM]
65 | NC(=S)N/N=C/c1ccc(OCc2cn(CC(=O)Nc3ccc(F)cc3)nn2)cc1 | 0.6
66 | NC(=S)N/N=C/c1ccc(OCc2cn(CC(=O)Nc3ccccc3)nn2)cc1 | 2.18
67 | Cc1c(Cl)cccc1NC(=O)Cn1cc(COc2ccc(/C=N/NC(N)=S)cc2)nn1 | 0.26
68 | NC(=S)N/N=C/c1ccc(OCc2cn(CC(=O)Nc3ccc([N+](=O)[O-])cc3)nn2)cc1 | 0.68
69 | NC(=S)N/N=C/c1ccc(OCc2cn(CC(=O)NCc3ccc(F)cc3)nn2)cc1 | 0.43
70 | Cc1c(NC(=O)Cn2cc(COc3ccc(/C=N/NC(N)=S)cc3)nn2)cccc1[N+](=O)[O-] | 0.56
71 | NC(=S)N/N=C/c1ccc(OCc2cn(CC(=O)Nc3cccc(Cl)c3Cl)nn2)cc1 | 0.42
72 | NC(=S)N/N=C/c1ccc(OCc2cn(CC(=O)Nc3cccc(Cl)c3)nn2)cc1 | 0.5
73 | COc1ccc(NC(=O)Cn2cc(COc3ccc(/C=N/NC(N)=S)cc3)nn2)cc1 | 0.52
74 | COc1cccc(NC(=O)Cn2cc(COc3ccc(/C=N/NC(N)=S)cc3)nn2)c1 | 0.84

Target: T2, Mushroom tyrosinase
Test: Inhibition of mushroom tyrosinase using L-tyrosine as substrate preincubated for 20 mins followed by substrate addition by absorbance based analysis

Row | SMILES | IC50 [µM]
75 | NC(=S)N/N=C/c1ccc(OCc2cn(CC(=O)Nc3ccc(F)cc3)nn2)cc1 | 0.14
76 | NC(=S)N/N=C/c1ccc(OCc2cn(CC(=O)Nc3ccccc3)nn2)cc1 | 0.79
77 | NC(=S)N/N=C/c1ccc(OCc2cn(CC(=O)NCc3ccc(F)cc3)nn2)cc1 | 0.83
78 | Cc1c(NC(=O)Cn2cc(COc3ccc(/C=N/NC(N)=S)cc3)nn2)cccc1[N+](=O)[O-] | 0.25
79 | COc1ccc(NC(=O)Cn2cc(COc3ccc(/C=N/NC(N)=S)cc3)nn2)cc1 | 0.12
80 | COc1cccc(NC(=O)Cn2cc(COc3ccc(/C=N/NC(N)=S)cc3)nn2)c1 | 0.22

Target: T2, Mushroom tyrosinase
Test: Inhibition of mushroom tyrosinase using L-DOPA as substrate preincubated for 10 mins followed by substrate addition by absorbance based analysis

Row | SMILES | IC50 [µM]
81 | O=[N+]([O-])c1ccccc1/C=N/c1nnc(S)s1 | 0.67
82 | COc1ccc(C2CC(c3cc4ccccc4oc3=O)=NN2c2nc(-c3ccc(Br)cc3)cs2)cc1O (stereo not drawn) | 0.083
83 | COc1ccc(C2CC(c3cc4ccccc4oc3=O)=NN2c2nc(-c3ccc(Br)cc3)cs2)cc1[N+](=O)[O-] (stereo not drawn) | 0.87
